Assay results published in patent US10253052B2, “HBED-bisphosphonates, radiometal conjugates and their use as theranostic agents” (Five Eleven Pharma Inc., priority 2015, dated 2019).

Assays:
[1] = In vivo biodistribution in mice; set-up: species or system normal CD-1 male mice; conditions: iv
Description: Biodistribution experiments were performed by intravenously administering ^68Ga labeled 1a-h, 2, 3, BPAMD, and [^18F]NaF into normal, healthy male CD-1 mice (25-30 g). The injection activity was 20-30 μCi/animal. […] Organs of interest were harvested, weighed, and counts of radioactivity were measured by a gamma counter. The biodistribution of each sample was calculated as a percentage of the injected dose per gram of wet tissue weight (% ID/g). Tibia and femur bones were harvested and counted as bone samples.

[2] = In vitro binding to hydroxyapatite; conditions: 20 mg hydroxyapatite in saline, 10 min at room temperature
Description: Hydroxyapatite (20 mg, Sigma-Aldrich, reagent grade powder) was incubated in isotonic saline (1 mL) for 24 h. Subsequently, either ^68Ga labeled 1a-h, 2, 3, BPAMD, or [^18F]NaF (1 μCi) was added to the hydroxyapatite suspension. After vortexing for 10 seconds, the suspension was incubated for 10 min at room temperature. The samples were then centrifuged at 10,000 rpm for 3 min and the supernatant was removed. The hydroxyapatite fraction was washed twice with saline (1 mL). Radioactivity in the combined supernatants and the hydroxyapatite fraction was measured using a gamma counter. The proportion of the ^68Ga complex binding to hydroxyapatite was determined as percent of ^68Ga absorbed to hydroxyapatite.

O=C([O-])CN(CCN(CC(=O)[O-])Cc1cc(CCC(=O)N[C@@H](CC(=O)O)C(=O)O)ccc1[O-])Cc1cc(CCC(=O)NC(P(=O)(O)O)P(=O)(O)O)ccc1[O-].[68Ga+3] [[^68Ga]1e]
bone to blood ratio ([1]; 2 min): 1
bone to muscle ratio ([1]; 2 min): 5
Biodistribution: Blood ([1]; 2 min post injection): 8.31 ± 0.57 % dose/g
Biodistribution: Bone ([1]; 2 min post injection): 8.82 ± 0.77 % dose/g
Biodistribution: Brain ([1]; 2 min post injection): 0.20 ± 0.04 % dose/g
Biodistribution: Heart ([1]; 2 min post injection): 2.55 ± 0.06 % dose/g
Biodistribution: Kidney ([1]; 2 min post injection): 24.8 ± 3.02 % dose/g
Biodistribution: Liver ([1]; 2 min post injection): 1.90 ± 0.13 % dose/g
Biodistribution: Lung ([1]; 2 min post injection): 4.00 ± 0.20 % dose/g
Biodistribution: Muscle ([1]; 2 min post injection): 1.71 ± 0.19 % dose/g
Biodistribution: Pancreas ([1]; 2 min post injection): 1.27 ± 0.07 % dose/g
Biodistribution: Skin ([1]; 2 min post injection): 2.54 ± 0.26 % dose/g
Biodistribution: Spleen ([1]; 2 min post injection): 1.72 ± 0.19 % dose/g
bone to blood ratio ([1]; 30 min): 29
bone to muscle ratio ([1]; 30 min): 67
Biodistribution: Blood ([1]; 30 min (0.5 hr) post injection): 0.57 ± 0.12 % dose/g
Biodistribution: Bone ([1]; 30 min (0.5 hr) post injection): 16.5 ± 0.56 % dose/g
Biodistribution: Brain ([1]; 30 min (0.5 hr) post injection): 0.02 ± 0.01 % dose/g
Biodistribution: Heart ([1]; 30 min (0.5 hr) post injection): 0.26 ± 0.04 % dose/g
Biodistribution: Kidney ([1]; 30 min (0.5 hr) post injection): 2.26 ± 0.27 % dose/g
Biodistribution: Liver ([1]; 30 min (0.5 hr) post injection): 0.27 ± 0.02 % dose/g
Biodistribution: Lung ([1]; 30 min (0.5 hr) post injection): 0.42 ± 0.08 % dose/g
Biodistribution: Muscle ([1]; 30 min (0.5 hr) post injection): 0.25 ± 0.03 % dose/g
Biodistribution: Pancreas ([1]; 30 min (0.5 hr) post injection): 0.17 ± 0.05 % dose/g
Biodistribution: Skin ([1]; 30 min (0.5 hr) post injection): 0.86 ± 0.22 % dose/g
Biodistribution: Spleen ([1]; 30 min (0.5 hr) post injection): 0.19 ± 0.02 % dose/g
bone to blood ratio ([1]; 60 min): 138
bone to muscle ratio ([1]; 60 min): 258
Biodistribution: Blood ([1]; 60 min (1 hr) post injection): 0.11 ± 0.02 % dose/g
Biodistribution: Bone ([1]; 60 min (1 hr) post injection): 14.9 ± 1.45 % dose/g
Biodistribution: Brain ([1]; 60 min (1 hr) post injection): 0.01 ± 0.00 % dose/g
Biodistribution: Heart ([1]; 60 min (1 hr) post injection): 0.08 ± 0.00 % dose/g
Biodistribution: Kidney ([1]; 60 min (1 hr) post injection): 2.12 ± 0.55 % dose/g
Biodistribution: Liver ([1]; 60 min (1 hr) post injection): 0.14 ± 0.01 % dose/g
Biodistribution: Lung ([1]; 60 min (1 hr) post injection): 0.15 ± 0.01 % dose/g
Biodistribution: Muscle ([1]; 60 min (1 hr) post injection): 0.06 ± 0.00 % dose/g
Biodistribution: Pancreas ([1]; 60 min (1 hr) post injection): 0.06 ± 0.01 % dose/g
Biodistribution: Skin ([1]; 60 min (1 hr) post injection): 0.12 ± 0.01 % dose/g
Biodistribution: Spleen ([1]; 60 min (1 hr) post injection): 0.09 ± 0.01 % dose/g
bone to blood ratio ([1]; 120 min): 230
bone to muscle ratio ([1]; 120 min): 411
Biodistribution: Blood ([1]; 120 min post injection): 0.08 ± 0.02 % dose/g
Biodistribution: Bone ([1]; 120 min post injection): 17.6 ± 2.61 % dose/g
Biodistribution: Brain ([1]; 120 min post injection): 0.01 ± 0.01 % dose/g
Biodistribution: Heart ([1]; 120 min post injection): 0.06 ± 0.01 % dose/g
Biodistribution: Kidney ([1]; 120 min post injection): 1.41 ± 0.28 % dose/g
Biodistribution: Liver ([1]; 120 min post injection): 0.14 ± 0.02 % dose/g
Biodistribution: Lung ([1]; 120 min post injection): 0.12 ± 0.02 % dose/g
Biodistribution: Muscle ([1]; 120 min post injection): 0.04 ± 0.01 % dose/g
Biodistribution: Pancreas ([1]; 120 min post injection): 0.04 ± 0.01 % dose/g
Biodistribution: Skin ([1]; 120 min post injection): 0.12 ± 0.03 % dose/g
Biodistribution: Spleen ([1]; 120 min post injection): 0.06 ± 0.01 % dose/g
Hydroxyapatite Binding (%) [2]: 95.8 ± 0.9%

O=C([O-])CN(CCN(CC(=O)[O-])Cc1cc(CCC(=O)O)ccc1[O-])Cc1cc(CCC(=O)O)ccc1[O-].[68Ga+3] [[^68Ga]HBED-CC, reference compound]
bone to blood ratio ([1]; 2 min): 0.2
bone to muscle ratio ([1]; 2 min): 0.8
Biodistribution: Blood ([1]; 2 min post injection): 7.66 ± 0.75 % dose/g
Biodistribution: Bone ([1]; 2 min post injection): 1.85 ± 0.05 % dose/g
Biodistribution: Brain ([1]; 2 min post injection): 0.29 ± 0.08 % dose/g
Biodistribution: Heart ([1]; 2 min post injection): 2.74 ± 0.34 % dose/g
Biodistribution: Kidney ([1]; 2 min post injection): 27.2 ± 0.64 % dose/g
Biodistribution: Liver ([1]; 2 min post injection): 1.75 ± 0.08 % dose/g
Biodistribution: Lung ([1]; 2 min post injection): 4.27 ± 0.34 % dose/g
Biodistribution: Muscle ([1]; 2 min post injection): 2.30 ± 0.13 % dose/g
Biodistribution: Pancreas ([1]; 2 min post injection): 1.60 ± 0.12 % dose/g
Biodistribution: Skin ([1]; 2 min post injection): 3.18 ± 0.43 % dose/g
Biodistribution: Spleen ([1]; 2 min post injection): 1.69 ± 0.18 % dose/g
bone to blood ratio ([1]; 30 min): 0.3
bone to muscle ratio ([1]; 30 min): 0.9
Biodistribution: Blood ([1]; 30 min (0.5 hr) post injection): 0.83 ± 0.09 % dose/g
Biodistribution: Bone ([1]; 30 min (0.5 hr) post injection): 0.28 ± 0.06 % dose/g
Biodistribution: Brain ([1]; 30 min (0.5 hr) post injection): 0.04 ± 0.01 % dose/g
Biodistribution: Heart ([1]; 30 min (0.5 hr) post injection): 0.34 ± 0.06 % dose/g
Biodistribution: Kidney ([1]; 30 min (0.5 hr) post injection): 3.22 ± 0.41 % dose/g
Biodistribution: Liver ([1]; 30 min (0.5 hr) post injection): 0.38 ± 0.08 % dose/g
Biodistribution: Lung ([1]; 30 min (0.5 hr) post injection): 0.58 ± 0.07 % dose/g
Biodistribution: Muscle ([1]; 30 min (0.5 hr) post injection): 0.32 ± 0.06 % dose/g
Biodistribution: Pancreas ([1]; 30 min (0.5 hr) post injection): 0.26 ± 0.01 % dose/g
Biodistribution: Skin ([1]; 30 min (0.5 hr) post injection): 0.64 ± 0.08 % dose/g
Biodistribution: Spleen ([1]; 30 min (0.5 hr) post injection): 0.26 ± 0.04 % dose/g
bone to blood ratio ([1]; 60 min): 1.7
bone to muscle ratio ([1]; 60 min): 2.3
Biodistribution: Blood ([1]; 60 min (1 hr) post injection): 0.14 ± 0.04 % dose/g
Biodistribution: Bone ([1]; 60 min (1 hr) post injection): 0.25 ± 0.16 % dose/g
Biodistribution: Brain ([1]; 60 min (1 hr) post injection): 0.02 ± 0.01 % dose/g
Biodistribution: Heart ([1]; 60 min (1 hr) post injection): 0.17 ± 0.11 % dose/g
Biodistribution: Kidney ([1]; 60 min (1 hr) post injection): 0.91 ± 0.32 % dose/g
Biodistribution: Liver ([1]; 60 min (1 hr) post injection): 0.11 ± 0.02 % dose/g
Biodistribution: Lung ([1]; 60 min (1 hr) post injection): 0.19 ± 0.04 % dose/g
Biodistribution: Muscle ([1]; 60 min (1 hr) post injection): 0.11 ± 0.04 % dose/g
Biodistribution: Pancreas ([1]; 60 min (1 hr) post injection): 0.13 ± 0.05 % dose/g
Biodistribution: Skin ([1]; 60 min (1 hr) post injection): 0.09 ± 0.07 % dose/g
Biodistribution: Spleen ([1]; 60 min (1 hr) post injection): 0.12 ± 0.02 % dose/g
bone to blood ratio ([1]; 120 min): 12
bone to muscle ratio ([1]; 120 min): 3.3
Biodistribution: Blood ([1]; 120 min post injection): 0.01 ± 0.00 % dose/g
Biodistribution: Bone ([1]; 120 min post injection): 0.18 ± 0.06 % dose/g
Biodistribution: Brain ([1]; 120 min post injection): 0.02 ± 0.00 % dose/g
Biodistribution: Heart ([1]; 120 min post injection): 0.09 ± 0.00 % dose/g
Biodistribution: Kidney ([1]; 120 min post injection): 0.08 ± 0.05 % dose/g
Biodistribution: Liver ([1]; 120 min post injection): 0.04 ± 0.02 % dose/g
Biodistribution: Lung ([1]; 120 min post injection): 0.07 ± 0.02 % dose/g
Biodistribution: Muscle ([1]; 120 min post injection): 0.05 ± 0.02 % dose/g
Biodistribution: Pancreas ([1]; 120 min post injection): 0.07 ± 0.01 % dose/g
Biodistribution: Skin ([1]; 120 min post injection): 0.03 ± 0.01 % dose/g
Biodistribution: Spleen ([1]; 120 min post injection): 0.13 ± 0.03 % dose/g
Hydroxyapatite Binding (%) [2]: 0.4±0.1%
